# Laboratory results from PubChem BioAssay (NCI).
#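 Dose response: 5 concentrations. Exposure: 48 h. Format: 96-well plates. Endpoint: linear interpolation; highest concentration if not reached. At the TGI there is no net growth.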
# Experiments:
# Experiment in all cases: NCI tumour cell line growth inhibition, 48 h
# MOLT-4 leukemia = test system: MOLT-4 leukemia
# MDA-MB-231 breast = test system: MDA-MB-231 breast
# M14 melanoma = test system: M14 melanoma
# KM12 colon = test system: KM12 colon
# U251 CNS = test system: U251 CNS
# EKVX NSCLC = test system: EKVX NSCLC
# HCT-116 colon = test system: HCT-116 colon
# SN12C renal = test system: SN12C renal
# K-562 leukemia = test system: K-562 leukemia
# MCF7 breast = test system: MCF7 breast
# RXF 393 renal = test system: RXF 393 renal
# PC-3 prostate = test system: PC-3 prostate
# OVCAR-4 ovarian = test system: OVCAR-4 ovarian
# SW-620 colon = test system: SW-620 colon
# NCI-H23 lung = test system: NCI-H23 lung
# A549 NSCLC = test system: A549 NSCLC
# HT29 colon = test system: HT29 colon
# BT-549 breast = test system: BT-549 breast
# SK-MEL-5 melanoma = test system: SK-MEL-5 melanoma
# SR leukemia = test system: SR leukemia
# HOP-92 NSCLC = test system: HOP-92 NSCLC
# HS 578T breast = test system: HS 578T breast
# COLO 205 colon = test system: COLO 205 colon
# OVCAR-5 ovarian = test system: OVCAR-5 ovarian
# SK-OV-3 ovarian = test system: SK-OV-3 ovarian
# NCI-H522 lung = test system: NCI-H522 lung
# SF-268 CNS = test system: SF-268 CNS
# MDA-MB-435 = test system: MDA-MB-435
# HCC-2998 colon = test system: HCC-2998 colon
# UO-31 renal = test system: UO-31 renal
# SNB-19 CNS = test system: SNB-19 CNS
# SK-MEL-2 melanoma = test system: SK-MEL-2 melanoma
# OVCAR-3 ovarian = test system: OVCAR-3 ovarian
# HOP-62 NSCLC = test system: HOP-62 NSCLC
# IGROV1 ovarian = test system: IGROV1 ovarian
# RPMI-8226 leukemia = test system: RPMI-8226 leukemia
# SF-295 CNS = test system: SF-295 CNS
# OVCAR-8 ovarian = test system: OVCAR-8 ovarian
# UACC-62 melanoma = test system: UACC-62 melanoma
# MALME-3M melanoma = test system: MALME-3M melanoma
# T-47D breast = test system: T-47D breast
# ACHN renal = test system: ACHN renal
# CAKI-1 renal = test system: CAKI-1 renal
# UACC-257 melanoma = test system: UACC-257 melanoma
# TK-10 renal = test system: TK-10 renal
# SNB-75 CNS = test system: SNB-75 CNS
# SK-MEL-28 melanoma = test system: SK-MEL-28 melanoma
# DU-145 prostate = test system: DU-145 prostate
# NCI-H226 lung = test system: NCI-H226 lung
# NCI/ADR-RES ovarian = test system: NCI/ADR-RES ovarian
# HCT-15 colon = test system: HCT-15 colon
# 786-0 renal = test system: 786-0 renal
# LOX IMVI melanoma = test system: LOX IMVI melanoma
# HL-60(TB) leukemia = test system: HL-60(TB) leukemia
# NCI-H460 lung = test system: NCI-H460 lung
# CCRF-CEM leukemia = test system: CCRF-CEM leukemia
# SF-539 CNS = test system: SF-539 CNS
compound,measurement,setting,value
CCOC(=O)Nc1sc2c(c1C#N)CC(C)CC2 (configuration not stated),TGI,MOLT-4 leukemia,> 100 µM
same,TGI,MDA-MB-231 breast,46.7 µM
same,TGI,M14 melanoma,17.4 µM
same,TGI,KM12 colon,36 µM
same,TGI,U251 CNS,> 100 µM
same,TGI,EKVX NSCLC,> 100 µM
same,TGI,HCT-116 colon,25 µM
same,TGI,SN12C renal,99 µM
same,TGI,K-562 leukemia,> 100 µM
same,TGI,MCF7 breast,24.5 µM
same,TGI,RXF 393 renal,70.2 µM
same,TGI,PC-3 prostate,41.8 µM
same,TGI,OVCAR-4 ovarian,> 100 µM
same,TGI,SW-620 colon,> 100 µM
same,TGI,NCI-H23 lung,> 100 µM
same,TGI,A549 NSCLC,40 µM
same,TGI,HT29 colon,10.9 µM
same,TGI,BT-549 breast,> 100 µM
same,TGI,SK-MEL-5 melanoma,16.6 µM
same,TGI,SR leukemia,18.4 µM
same,TGI,HOP-92 NSCLC,> 100 µM
same,TGI,HS 578T breast,65.9 µM
same,TGI,COLO 205 colon,18.2 µM
same,TGI,OVCAR-5 ovarian,99.1 µM
same,TGI,SK-OV-3 ovarian,> 100 µM
same,TGI,NCI-H522 lung,16.9 µM
same,TGI,SF-268 CNS,96.6 µM
same,TGI,MDA-MB-435,> 100 µM
same,TGI,HCC-2998 colon,11.2 µM
same,TGI,UO-31 renal,46.1 µM
same,TGI,SNB-19 CNS,27 µM
same,TGI,SK-MEL-2 melanoma,7.87 µM
same,TGI,OVCAR-3 ovarian,> 100 µM
same,TGI,HOP-62 NSCLC,> 100 µM
same,TGI,IGROV1 ovarian,> 100 µM
same,TGI,RPMI-8226 leukemia,34.8 µM
same,TGI,SF-295 CNS,> 100 µM
same,TGI,OVCAR-8 ovarian,> 100 µM
same,TGI,UACC-62 melanoma,96.4 µM
same,TGI,MALME-3M melanoma,76.9 µM
same,TGI,T-47D breast,> 100 µM
same,TGI,ACHN renal,88.5 µM
same,TGI,CAKI-1 renal,> 100 µM
same,TGI,UACC-257 melanoma,42.8 µM
same,TGI,TK-10 renal,98 µM
same,TGI,SNB-75 CNS,38.2 µM
same,TGI,SK-MEL-28 melanoma,> 100 µM
same,TGI,DU-145 prostate,> 100 µM
same,TGI,NCI-H226 lung,35.3 µM
same,TGI,NCI/ADR-RES ovarian,7.86 µM
same,TGI,HCT-15 colon,> 100 µM
same,TGI,786-0 renal,40.6 µM
same,TGI,LOX IMVI melanoma,54.5 µM
same,TGI,HL-60(TB) leukemia,13.1 µM
same,TGI,NCI-H460 lung,17.3 µM
O=c1cc(-c2ccccc2)[nH]c2ccc(S)cc12,TGI,MOLT-4 leukemia,39.8 µM
same,TGI,MDA-MB-231 breast,> 100 µM
same,TGI,M14 melanoma,84.8 µM
same,TGI,KM12 colon,> 100 µM
same,TGI,U251 CNS,> 100 µM
same,TGI,HCT-116 colon,66.9 µM
same,TGI,SN12C renal,37 µM
same,TGI,K-562 leukemia,> 100 µM
same,TGI,MCF7 breast,> 100 µM
same,TGI,RXF 393 renal,68.2 µM
same,TGI,PC-3 prostate,> 100 µM
same,TGI,OVCAR-4 ovarian,> 100 µM
same,TGI,SW-620 colon,> 100 µM
same,TGI,NCI-H23 lung,> 100 µM
same,TGI,A549 NSCLC,> 100 µM
same,TGI,HT29 colon,93.1 µM
same,TGI,BT-549 breast,55.2 µM
same,TGI,SK-MEL-5 melanoma,29.5 µM
same,TGI,SR leukemia,> 100 µM
same,TGI,HOP-92 NSCLC,91.5 µM
same,TGI,HS 578T breast,> 100 µM
same,TGI,COLO 205 colon,> 100 µM
same,TGI,OVCAR-5 ovarian,> 100 µM
same,TGI,SK-OV-3 ovarian,> 100 µM
same,TGI,NCI-H522 lung,64.5 µM
same,TGI,SF-268 CNS,> 100 µM
same,TGI,MDA-MB-435,45.4 µM
same,TGI,HCC-2998 colon,51.9 µM
same,TGI,CCRF-CEM leukemia,> 100 µM
same,TGI,SNB-19 CNS,> 100 µM
same,TGI,OVCAR-3 ovarian,> 100 µM
same,TGI,HOP-62 NSCLC,> 100 µM
same,TGI,IGROV1 ovarian,> 100 µM
same,TGI,RPMI-8226 leukemia,> 100 µM
same,TGI,SF-539 CNS,> 100 µM
same,TGI,SF-295 CNS,> 100 µM
same,TGI,OVCAR-8 ovarian,> 100 µM
same,TGI,UACC-62 melanoma,> 100 µM
same,TGI,MALME-3M melanoma,57.7 µM
same,TGI,T-47D breast,68 µM
same,TGI,ACHN renal,99.7 µM
same,TGI,UACC-257 melanoma,> 100 µM
same,TGI,TK-10 renal,79.6 µM
same,TGI,SNB-75 CNS,76.1 µM
same,TGI,SK-MEL-28 melanoma,64.6 µM
same,TGI,DU-145 prostate,> 100 µM
same,TGI,NCI-H226 lung,81.9 µM
same,TGI,NCI/ADR-RES ovarian,56.3 µM
same,TGI,HCT-15 colon,48 µM
same,TGI,786-0 renal,> 100 µM
same,TGI,HL-60(TB) leukemia,> 100 µM
same,TGI,NCI-H460 lung,> 100 µM
